Results from patent US4310660A, “Lincomycin compounds” (The Upjohn Company, priority 1980, dated 1982).
≈ marks a conversion by molar mass, not a printed value. Like-named read-outs stand apart in the source and are kept apart here.

Key:
Format in all cases: cell-based
S. hemolyticus = assay: MIC, test procedure as given supra; conditions: S. hemolyticus UC 152
Method: (§1) The Minimal Inhibitory Concentration (MIC's) of both compounds Vs. aerobic bacteria is determined using a standard microplate broth-dilution method. Brain Heart Infusion (BHI-Difco) broth medium is used, and the plates are incubated at 37° C. for 20 hrs.
The Minimal Inhibitory Concentration (MIC's) of a representative number of the compounds prepared in Examples 2-8 follows. The test procedure is as given supra.

Escherichia coli = assay: MIC vs. aerobic bacteria, microplate broth-dilution (BHI); conditions: UC45, 20 h, E. coli UC 45, read-out: MIC
Method: as §1

[1] = test system: Salmonella schottmuelleri; assay: as above; conditions: S. schottmuelleri UC 126
Method: as §1

Diplococcus pneumoniae = assay: as above; conditions: D. pneumoniae UC 41
Method: as §1

Pseudomonas aeruginosa = assay: as above; conditions: UC95, 20 h, Ps. aeruginosa UC 95, read-out: MIC
Method: as §1

Proteus vulgaris = assay: as above; conditions: P. vulgaris UC 93
Method: as §1

Klebsiella pneumoniae = assay: as above; conditions: K. pneumoniae UC 58
Method: as §1

Streptococcus faecalis = assay: as above; conditions: St. faecalis UC 694
Method: as §1

Staphylococcus aureus = assay: as above
[2] = Streptococcus pneumoniae, UC41, 20 h, read-out: MIC
[3] = Proteus vulgaris, UC93, 20 h, read-out: MIC
[4] = Klebsiella pneumoniae, UC58, 20 h, read-out: MIC
[5] = Enterococcus faecalis, UC694, 20 h, read-out: MIC
[6] = Staphylococcus aureus, UC76, 20 h, S. aureus UC 76, read-out: MIC
[7] = Staphylococcus aureus, UC570, 20 h, S. aureus UC 570, read-out: MIC
[8] = Staphylococcus aureus, UC746, 20 h, S. aureus UC 746, read-out: MIC

Row | SMILES | MIC (S. hemolyticus; UC152, 20 h, read-out: MIC) [µg/mL] | MIC (Escherichia coli) [µg/mL] | MIC ([1]; Salmonella, UC126, 20 h) [µg/mL] | MIC (Diplococcus pneumoniae; [2]) [µg/mL] | MIC (Pseudomonas aeruginosa) [µg/mL] | MIC (Proteus vulgaris; [3]) [µg/mL] | MIC (Klebsiella pneumoniae; [4]) [µg/mL] | MIC (Streptococcus faecalis; [5]) [µg/mL] | MIC (Staphylococcus aureus; [6]) [µg/mL] | MIC (Staphylococcus aureus; [7]) [µg/mL] | MIC (Staphylococcus aureus; [8]) [µg/mL] | other results
1 | CS[C@H]1O[C@H]([C@H](NC(=O)C2CCCCN2CCO)[C@H](C)Cl)[C@H](O)[C@H](O)[C@H]1O (stereo partly drawn) [U-44,469] | 31.3 (≈ 73.3 µM) | > 1000 | > 1000 | 31.3 (≈ 73.3 µM) | > 1000 | > 1000 | > 1000 | 1000 (≈ 2340 µM) | 250 (≈ 586 µM) | 250 (≈ 586 µM) | > 1000 | –
2 | CCc1ccnc(C(=O)N[C@@H]([C@H]2O[C@H](SC)[C@H](O)[C@@H](O)[C@H]2O)[C@H](C)Cl)c1 [U-45,652] | 500 (≈ 1230 µM) | > 1000 | > 1000 | 500 (≈ 1230 µM) | > 1000 | > 1000 | 500 (≈ 1230 µM) | > 1000 | 1000 (≈ 2470 µM) | > 1000 | 1000 (≈ 2470 µM) | –
3 | CCc1ccnc(C(=O)N[C@@H]([C@H]2O[C@H](SC)[C@H](O)[C@@H](O)[C@H]2O)[C@@H](C)O)c1 [U-45,653] | > 1000 | > 1000 | > 1000 | > 1000 | > 1000 | > 1000 | > 1000 | > 1000 | > 1000 | > 1000 | > 1000 | –
4 | CCc1ccc(C(=O)N[C@@H]([C@H]2O[C@H](SC)[C@H](O)[C@@H](O)[C@H]2O)[C@H](C)Cl)nc1 [U-45,656] | 3.9 (≈ 9.63 µM) | > 1000 | 1000 (≈ 2470 µM) | – | > 1000 | > 1000 | 1000 (≈ 2470 µM) | 1000 (≈ 2470 µM) | 62.5 (≈ 154 µM) | 62.5 (≈ 154 µM) | 62.5 (≈ 154 µM) | –
5 | CS[C@H]1O[C@H]([C@H](NC(=O)c2cccnc2Cl)[C@H](C)Cl)[C@H](O)[C@H](O)[C@H]1O [U-45,657] | 7.8 (≈ 19 µM) | > 1000 | > 1000 | – | > 1000 | > 1000 | > 1000 | > 1000 | 125 (≈ 304 µM) | 250 (≈ 608 µM) | 250 (≈ 608 µM) | –
6 | CS[C@H]1O[C@H]([C@H](NC(=O)c2ccccn2)[C@H](C)Cl)[C@H](O)[C@H](O)[C@H]1O [U-45,863] | 2 (≈ 5.31 µM) | > 1000 | > 1000 | 62.5 (≈ 166 µM) | > 1000 | > 1000 | > 1000 | – | 62.5 (≈ 166 µM) | – | – | –
7 | CS[C@H]1O[C@H]([C@H](NC(=O)c2ccccn2)[C@H](C)O)[C@H](O)[C@H](O)[C@H]1O [U-46,135] | 1000 (≈ 2790 µM) | > 1000 | > 1000 | > 1000 | > 1000 | > 1000 | > 1000 | > 1000 | > 1000 | > 1000 | > 1000 | –
8 | CS[C@H]1O[C@H]([C@H](NC(=O)c2ccccn2)[C@@H](C)O)[C@H](O)[C@H](O)[C@H]1O [U-46,136] | 1000 (≈ 2790 µM) | > 1000 | > 1000 | > 1000 | > 1000 | > 1000 | > 1000 | > 1000 | > 1000 | > 1000 | > 1000 | –
9 | CS[C@H]1O[C@H]([C@H](NC(=O)c2ccncc2)[C@H](C)Cl)[C@H](O)[C@H](O)[C@H]1O [U-46,137] | 1000 (≈ 2650 µM) | 1000 (≈ 2650 µM) | 1000 (≈ 2650 µM) | 500 (≈ 1330 µM) | 1000 (≈ 2650 µM) | > 1000 | 1000 (≈ 2650 µM) | > 1000 | > 1000 | > 1000 | > 1000 | –
10 | CS[C@H]1O[C@H]([C@H](NC(=O)C2CCCCN2)[C@H](C)Cl)[C@H](O)[C@H](O)[C@H]1O (stereo partly drawn) [U-46,337] | – | > 1000 | > 1000 | – | > 1000 | > 1000 | > 1000 | – | – | – | – | MIC (S. hemolyticus; listed as 46,337): 250 µg/mL (≈ 653 µM); MIC (Diplococcus pneumoniae; listed as 46,337): 250 µg/mL (≈ 653 µM); MIC (Streptococcus faecalis; listed as 46,337): > 1000 µg/mL; MIC (Staphylococcus aureus; S. aureus UC 76, listed as 46,337): 1000 µg/mL (≈ 2610 µM); MIC (Staphylococcus aureus; S. aureus UC 570, listed as 46,337): 1000 µg/mL (≈ 2610 µM); MIC (Staphylococcus aureus; S. aureus UC 746, listed as 46,337): 1000 µg/mL (≈ 2610 µM)
11 | CS[C@H]1O[C@H]([C@H](NC(=O)C2CCCCN2)[C@H](C)Cl)[C@H](O)[C@H](O)[C@H]1O (stereo partly drawn) [U-46,465] | – | – | – | – | – | – | – | – | – | – | – | MIC (S. hemolyticus; listed as 46,465): < 1.0 µg/mL; MIC [1]: 1000 µg/mL (≈ 2610 µM); MIC (Diplococcus pneumoniae; listed as 46,465): < 1.0 µg/mL; MIC (Proteus vulgaris): 1000 µg/mL (≈ 2610 µM); MIC (Klebsiella pneumoniae): 500 µg/mL (≈ 1310 µM); MIC (Streptococcus faecalis; listed as 46,465): 3.9 µg/mL (≈ 10.2 µM); MIC (Staphylococcus aureus; S. aureus UC 76, listed as 46,465): 3.9 µg/mL (≈ 10.2 µM); MIC (Staphylococcus aureus; S. aureus UC 570, listed as 46,465): 31.2 µg/mL (≈ 81.5 µM); MIC (Staphylococcus aureus; S. aureus UC 746, listed as 46,465): 3.9 µg/mL (≈ 10.2 µM)
12 | CS[C@H]1O[C@H]([C@H](NC(=O)C2CCCCN2C)[C@H](C)Cl)[C@H](O)[C@H](O)[C@H]1O (stereo partly drawn) [U-46,699] | 3.9 (≈ 9.83 µM) | 1000 (≈ 2520 µM) | > 1000 | < 1 | > 1000 | 1000 (≈ 2520 µM) | 250 (≈ 630 µM) | 15.6 (≈ 39.3 µM) | 3.9 (≈ 9.83 µM) | 7.8 (≈ 19.7 µM) | 7.8 (≈ 19.7 µM) | –
13 | CS[C@H]1O[C@H]([C@H](NC(=O)C2CCCCN2)[C@@H](C)O)[C@H](O)[C@H](O)[C@H]1O (stereo partly drawn) [U-60,492] | – | – | – | – | – | – | – | – | – | – | – | MIC (S. hemolyticus): 15.6 µg/mL (≈ 42.8 µM); MIC (Diplococcus pneumoniae): 31.2 µg/mL (≈ 85.6 µM); MIC (Streptococcus faecalis): > 1000 µg/mL; MIC (Staphylococcus aureus; S. aureus UC 570): > 1000 µg/mL; MIC (Staphylococcus aureus; S. aureus UC 746): 250 µg/mL (≈ 686 µM)
14 | CS[C@H]1O[C@H]([C@H](NC(=O)C2CCCCN2)[C@@H](C)O)[C@H](O)[C@H](O)[C@H]1O (stereo partly drawn) [U-60,493] | 7.8 (≈ 21.4 µM) | > 1000 | > 1000 | 15.6 (≈ 42.8 µM) | > 1000 | > 1000 | > 1000 | 1000 (≈ 2740 µM) | 1000 (≈ 2740 µM) | 1000 (≈ 2740 µM) | 250 (≈ 686 µM) | –
